In ChEMBL document CHEMBL1142881, “Structure-activity relationships of 19-norvitamin D analogs having a fluoroethylidene group at the C-2 position” (Bioorg Med Chem, 2007):
Values joined by “and” are separate entries in the source; they are usually repeats but may differ in a detail not shown here. Identical values can stand only once.

How the values were obtained:
[1] = target: T1, Vitamin D3 receptor (Homo sapiens) (UniProt P11473); assay: Displacement of [3H]1-alpha,25-(OH)2D3 from thymus VDR realtive to 1-alpha,25-(OH)2D3
T1 sequence (whole entry): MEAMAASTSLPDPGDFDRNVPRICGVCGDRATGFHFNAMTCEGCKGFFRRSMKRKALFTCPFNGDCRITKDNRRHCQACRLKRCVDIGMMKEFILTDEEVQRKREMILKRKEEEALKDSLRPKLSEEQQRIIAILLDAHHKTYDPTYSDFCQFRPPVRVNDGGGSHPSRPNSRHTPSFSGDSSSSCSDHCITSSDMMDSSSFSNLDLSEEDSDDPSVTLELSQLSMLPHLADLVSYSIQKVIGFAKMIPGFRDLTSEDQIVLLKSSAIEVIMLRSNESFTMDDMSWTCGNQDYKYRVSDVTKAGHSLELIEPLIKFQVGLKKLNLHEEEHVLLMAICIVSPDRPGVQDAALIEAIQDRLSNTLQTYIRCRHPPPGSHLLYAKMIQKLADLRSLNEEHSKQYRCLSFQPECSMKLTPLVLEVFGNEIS

Vitamin D3 receptor = target: T2, Vitamin D3 receptor (Homo sapiens, UniProt P11473); assay: […] of human VDR induced-transcriptional transactivation of luciferase reporter gene in COS7 cells after 24 hrs; format: cell-based, COS-7
T2 sequence (P11473 whole entry): T1 sequence (whole entry)

[2] = target: T1, Vitamin D3 receptor (Homo sapiens); assay: […] of human VDR induced-transcriptional transactivation of luciferase reporter gene in COS7 cells after 24 hrs relative to 1-alpha,25-(OH)2D3; format: cell-based; settings: COS-7
[3] = target: T3, Vitamin D3 receptor (Rattus norvegicus) (UniProt P13053); assay: Displacement of [3H]1-alpha,25-(OH)2D3 from rat recombinant VDR ligand-binding domain expressed in Escherichia coli BL21 realtive to 1-alpha,25-(OH)2D3
T3 sequence (whole entry): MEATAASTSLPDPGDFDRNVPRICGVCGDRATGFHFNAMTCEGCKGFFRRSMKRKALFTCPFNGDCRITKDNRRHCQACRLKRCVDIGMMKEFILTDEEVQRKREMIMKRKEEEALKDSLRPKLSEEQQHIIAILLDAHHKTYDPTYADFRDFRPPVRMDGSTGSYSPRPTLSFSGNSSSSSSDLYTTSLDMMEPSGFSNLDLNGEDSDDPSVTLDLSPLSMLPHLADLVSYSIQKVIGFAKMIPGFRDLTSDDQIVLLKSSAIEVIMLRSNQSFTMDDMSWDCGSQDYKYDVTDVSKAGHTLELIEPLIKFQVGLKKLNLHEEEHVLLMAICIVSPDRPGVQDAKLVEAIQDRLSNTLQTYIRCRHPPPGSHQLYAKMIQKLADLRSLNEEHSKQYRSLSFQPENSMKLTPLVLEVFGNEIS

C[C@H](CCCC(C)(C)O)C1CCC2/C(=C/C=C3C[C@@H](O)C(=CCO)[C@H](O)C3)CCCC21C (some centres undefined)
Activity [1]: 2% and 0.007%

C[C@H](CCCC(C)(C)O)C1CCC2/C(=C/C=C3C[C@@H](O)C(=CCF)[C@H](O)C3)CCCC21C (some centres undefined) [listing 1 of 3 here]
EC50 (Vitamin D3 receptor): 0.5 nM

C[C@@H](CCCC(C)(C)O)C1CCC2/C(=C/C=C3C[C@@H](O)C(=CCF)[C@H](O)C3)CCCC21C (some centres undefined) [listing 1 of 3 here]
EC50 (Vitamin D3 receptor): 0.07 nM

C[C@@H](CCCC(C)(C)O)C1CCC2/C(=C/C=C3C[C@@H](O)C(=CCO)[C@H](O)C3)CCCC21C (some centres undefined)
Activity [1]: 0.02% and 1.6%
Activity [2]: 4.2 and 12.5

C[C@H](CCCC(C)(C)O)C1CCC2/C(=C/C=C3C[C@@H](O)C(=CCF)[C@H](O)C3)CCCC21C (some centres undefined) [listing 2 of 3 here]
EC50 (Vitamin D3 receptor): 2.2 nM

C[C@@H](CCCC(C)(C)O)C1CCC2/C(=C/C=C3C[C@@H](O)C(=CCF)[C@H](O)C3)CCCC21C (some centres undefined) [listing 2 of 3 here]
Activity [3]: 0.07% and 1.08%

C[C@H](CCCC(C)(C)O)C1CCC2/C(=C/C=C3C[C@@H](O)C(=CCF)[C@H](O)C3)CCCC21C (some centres undefined) [listing 3 of 3 here]
Activity [3]: 0.77% and 0.05%

C[C@@H](CCCC(C)(C)O)C1CCC2/C(=C/C=C3C[C@@H](O)C(=CCF)[C@H](O)C3)CCCC21C (some centres undefined) [listing 3 of 3 here]
EC50 (Vitamin D3 receptor): 1.1 nM
